Our source for the binding values is publication PMC9696068 (2022).

For the assay, the system named is AT11 on 2[G4]-(N3)127/(AT11)34/(Cy5)1 (aptadendrimer) (DNA, G4) TGGTGGTGGTTGTTGTGGTGGTGGTGGT
Kind of assay: steady-state and time-resolved fluorescence, fluorescence anisotropy. The conditions noted are these: K+ 65 mM KCl plus potassium phosphate; 20 mM phosphate pH 6.9, room temperature; 0.5 µM C8, aptadendrimer titrated; dendrimer core may contribute. Background: Fluorescence polarisation rises when a labelled molecule tumbles more slowly, as on binding a larger partner.

As to `CN(C)c1ccc2cc3ccc(N(C)C)cc3[n+](CCCCCCCCNC(=O)c3ccc(I)cc3)c2c1`, the binding entry is “yes”.
